Test results: patent US20260183253A1, “TREATING LIVER CANCERS WITH HYDROXYUREAMETHYL ACYLFULVENE” (Lantern Pharma Inc., priority 2023, published 2026)

Test system: liver cancer cell lines including SNU387, SNU475, SNU449, and HEPG2
Assay: Cell viability, CellTiter-Fluor assay, 72 h treatment
Assay type: cell-based
Details: values shown only in FIG. 1
Procedure: Liver cancer cell lines including SNU387, SNU475, SNU449, and HEPG2, were obtained from the American Type Culture Collection (ATCC), ensuring standardized and reliable cell sources. […] Cells were seeded into 96-well plates at a density optimized for exponential growth, allowing sufficient space for cellular proliferation during the course of the experiment. Each well was seeded with an equal number of cells to ensure consistency across the experiment. Following seeding, cells were allowed to adhere and acclimatize for 24 hours at 37° C. in a humidified incubator with 5% CO2, maintaining optimal growth conditions. Once acclimated, the cells were treated with either a vehicle control (DMSO) or varying concentrations of LP-184. […]
Following the 72-hour treatment period, cell viability was assessed using the CellTiter-Fluor® assay from Promega, a sensitive fluorescence-based assay that quantifies the number of viable cells based on the presence of active cellular proteases. […]
The plates were then incubated for an additional 30 minutes at 37° C. to allow the enzymatic reaction to occur, resulting in the cleavage of the fluorogenic substrate by viable cells. […] The fluorescence signal was measured using a plate reader set to an excitation wavelength of 400 nm and an emission wavelength of 505 nm, parameters optimized for the GF-AFC substrate. […]

CC1=C(CN(O)C(N)=O)C2=C(C)C3(CC3)[C@@](C)(O)C(=O)C2=C1 [LP-184, (−)-hydroxyureamethyl acylfulvene]
IC50 (nM) against various liver cancer cell lines: nanomolar potency
